Assay [1] concerns the target T1, human amylin receptor (calcitonin receptor co-expressed with receptor activity modifying protein, RAMP3) (hAMYR3) (Homo sapiens, UniProt O60896+P30988).
T1 construct: expressed in transfected cells
T1 sequence (P30988 25-474): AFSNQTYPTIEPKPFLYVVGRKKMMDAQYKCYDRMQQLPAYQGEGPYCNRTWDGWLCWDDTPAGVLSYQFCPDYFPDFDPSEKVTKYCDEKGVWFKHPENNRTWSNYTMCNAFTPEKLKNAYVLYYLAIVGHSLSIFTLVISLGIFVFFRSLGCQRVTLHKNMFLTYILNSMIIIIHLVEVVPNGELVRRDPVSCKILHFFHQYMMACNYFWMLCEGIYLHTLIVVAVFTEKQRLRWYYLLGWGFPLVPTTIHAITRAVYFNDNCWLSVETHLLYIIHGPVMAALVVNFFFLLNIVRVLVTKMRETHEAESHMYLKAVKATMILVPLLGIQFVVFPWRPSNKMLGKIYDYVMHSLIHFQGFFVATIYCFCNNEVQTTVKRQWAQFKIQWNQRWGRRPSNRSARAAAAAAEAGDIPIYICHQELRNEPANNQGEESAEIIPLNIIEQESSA
T1 sequence (O60896 24-148 partner): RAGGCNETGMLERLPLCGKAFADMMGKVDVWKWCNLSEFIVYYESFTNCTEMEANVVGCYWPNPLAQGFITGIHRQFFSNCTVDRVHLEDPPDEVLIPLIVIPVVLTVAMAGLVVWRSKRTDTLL
The assay can be described thus: cAMP production in 1321N1 cells with stable recombinant expression of human amylin receptor (hAMYR3). Conditions: for Ratio (selectivity hAMYR vs hCTR, ratio of EC50 values at the two receptors): EC50 hCTR / EC50 hAMYR3; for EC50: cAMP, 1321N1 cells, assay buffer with 0.1% BSA, read-out: EC50 (pM) hAMYR3. Format: cell-based. The method in brief:
(§1)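 EC50 values come from 4-parameter logistic fits of HTRF cAMP signal, normalised to maximal calcitonin or amylin effect. Peptides were tested in duplicate for 30 min at RT in IBMX-containing (0.5 mM) BSA/HEPES buffer pH 7.4 on stable 1321N1 (human CTR, AMYR3) or HEK (rat CTR, AMYR3) lines.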

Assay [2] deals with T2, human calcitonin receptor (hCTR) (Homo sapiens, UniProt P30988).
T2 construct: expressed in transfected cells
T2 sequence (P30988 25-474): T1 sequence (P30988 25-474)
As to the kind of experiment: cAMP production in 1321N1 cells with stable recombinant expression of human calcitonin receptor (hCTR). Format: cell-based. Conditions: cAMP, 1321N1 cells, assay buffer with 0.1% BSA; read-out: EC50 (pM) hCTR. The method in brief:
as §1
In general terms: cAMP levels reflect the balance of adenylyl cyclase and phosphodiesterase activity.

The record followed here is patent US20240067693A1, “POLYPEPTIDES AND USES THEREOF” (MEDIMMUNE LIMITED, priority 2020, published 2024).

Numbered stars: 1 amine (or outer) side, 2 acyl side, 3 side chain; on linkers, the order of the positions; unused ones are H or OH. Bridge positions count the residues as written; N and C are the ends. Square brackets hold non-standard residues; d marks the D form. Side chains are listed from the residue outwards. Peptide text beside a SMILES is read from it. * marks the point of attachment. C18 diacid = O=C(O)CCCCCCCCCCCCCCCCC(=O)*; γGlu = O=C(O)[C@H](CCC(=O)[*:2])N[*:1]; AEEA = NCCOCCOCC(=O)O; Aib = CC(C)(N)C(=O)O

The EC50 is the concentration at which the effect is half-maximal.

For the compound `CC[C@H](C)[C@H](NC(=O)[C@@H]1CCCN1C(=O)CNC(=O)[C@H](Cc1ccccc1)NC(=O)[C@H](CC(N)=O)NC(=O)C(C)(C)NC(=O)[C@H](CO)NC(=O)[C@H](CO)NC(=O)[C@H](Cc1c[nH]cn1)NC(=O)[C@H](CO)NC(=O)[C@H](CC(C)C)NC(=O)[C@H](Cc1ccccc1)NC(=O)[C@H](CC(N)=O)NC(=O)[C@H](C)NC(=O)[C@H](CC(C)C)NC(=O)[C@H](CCCNC(=N)N)NC(=O)[C@H](CCC(N)=O)NC(=O)[C@@H](NC(=O)[C@H](C)NC(=O)[C@@H]1CSSC[C@H](NC(=O)[C@H](CCCCN)NC(=O)[C@@H](N)CCCCNC(=O)CC[C@H](NC(=O)CCCCCCCCCCCCCCCCC(=O)O)C(=O)O)C(=O)N[C@@H](CC(N)=O)C(=O)N[C@@H]([C@@H](C)O)C(=O)N[C@@H](C)C(=O)N[C@@H]([C@@H](C)O)C(=O)N1)[C@@H](C)O)C(=O)N[C@@H](CC(C)C)C(=O)N1CCC[C@H]1C(=O)N1CCC[C@H]1C(=O)N[C@H](C(=O)N1CCC[C@H]1C(=O)N[C@H](C(=O)NCC(=O)N[C@@H](CO)C(=O)N[C@@H](CC(N)=O)C(=O)N[C@H](C(=O)N[C@@H](Cc1ccc(O)cc1)C(N)=O)[C@@H](C)O)C(C)C)[C@@H](C)O` [Peptide 53, K(γE-C18diacid)K[CNTATC]ATQRLANFLSHSS(Aib)NFGPILPPTPVGSNTY-amide] (H-K([γGlu-C18 diacid])KCNTATCATQRLANFLSHSS[Aib]NFGPILPPTPVGSNTY-NH2; disulfide 3-8; N-terminus assumed), in assay [1], the “Ratio (selectivity hAMYR vs hCTR, ratio of EC50 values at the two receptors)” value amounted to 2 and the concentration giving a half-maximal response (EC50) amounted to 98 pM. In assay [2], the EC50 came to 235 pM.

With `CC[C@H](C)[C@H](NC(=O)[C@@H]1CCCN1C(=O)CNC(=O)[C@H](Cc1ccccc1)NC(=O)[C@H](Cc1c[nH]cn1)NC(=O)[C@H](CC(N)=O)NC(=O)[C@H](CO)NC(=O)[C@H](CO)NC(=O)[C@H](Cc1c[nH]cn1)NC(=O)C(C)(C)NC(=O)[C@H](CC(C)C)NC(=O)[C@H](Cc1ccccc1)NC(=O)[C@H](CC(N)=O)NC(=O)[C@H](C)NC(=O)[C@H](CC(C)C)NC(=O)[C@H](CCCNC(=N)N)NC(=O)[C@H](CCC(N)=O)NC(=O)[C@@H](NC(=O)[C@H](C)NC(=O)[C@@H]1CSSC[C@H](NC(=O)[C@H](CCCCN)NC(=O)[C@@H](N)CCCCNC(=O)CC[C@H](NC(=O)CCCCCCCCCCCCCCCCC(=O)O)C(=O)O)C(=O)N[C@@H](CC(N)=O)C(=O)N[C@@H]([C@@H](C)O)C(=O)N[C@@H](C)C(=O)N[C@@H]([C@@H](C)O)C(=O)N1)[C@@H](C)O)C(=O)N[C@@H](CC(C)C)C(=O)N1CCC[C@H]1C(=O)N1CCC[C@H]1C(=O)N[C@H](C(=O)N[C@@H](CC(N)=O)C(=O)N[C@H](C(=O)NCC(=O)N[C@@H](CO)C(=O)N[C@@H](CCC(=O)O)C(=O)N[C@H](C(=O)N[C@@H](Cc1ccc(O)cc1)C(N)=O)[C@@H](C)O)C(C)C)[C@@H](C)O` [Peptide 147] (H-K([γGlu-C18 diacid])KCNTATCATQRLANFL[Aib]HSSNHFGPILPPTNVGSETY-NH2; disulfide 3-8; N-terminus assumed), in assay [1], the “Ratio (selectivity hAMYR vs hCTR, ratio of EC50 values at the two receptors)” value was 1.9 and the EC50 was 802 pM. The EC50 in assay [2] came out at 1510 pM.

Consider `CC[C@H](C)[C@H](NC(=O)[C@@H]1CCCN1C(=O)CNC(=O)[C@H](Cc1ccccc1)NC(=O)[C@H](CC(N)=O)NC(=O)[C@H](CC(N)=O)NC(=O)[C@H](CO)NC(=O)[C@H](CO)NC(=O)[C@H](Cc1c[nH]cn1)NC(=O)C(C)(C)NC(=O)[C@H](CC(C)C)NC(=O)[C@H](Cc1ccccc1)NC(=O)[C@H](CC(N)=O)NC(=O)[C@H](C)NC(=O)[C@H](CC(C)C)NC(=O)[C@H](CCCNC(=N)N)NC(=O)[C@H](CCC(N)=O)NC(=O)[C@@H](NC(=O)[C@H](C)NC(=O)[C@@H]1CSSC[C@H](NC(=O)[C@H](CCCCN)NC(=O)[C@@H](N)CCCCNC(=O)CC[C@H](NC(=O)CCCCCCCCCCCCCCCCC(=O)O)C(=O)O)C(=O)N[C@@H](CC(N)=O)C(=O)N[C@@H]([C@@H](C)O)C(=O)N[C@@H](C)C(=O)N[C@@H]([C@@H](C)O)C(=O)N1)[C@@H](C)O)C(=O)N[C@@H](CC(C)C)C(=O)N1CCC[C@H]1C(=O)N1CCC[C@H]1C(=O)N[C@H](C(=O)N[C@@H](CC(N)=O)C(=O)N[C@H](C(=O)NCC(=O)N[C@@H](CO)C(=O)N[C@@H](CC(N)=O)C(=O)N[C@H](C(=O)N1CCC[C@H]1C(N)=O)[C@@H](C)O)C(C)C)[C@@H](C)O` [Peptide 136] (H-K([γGlu-C18 diacid])KCNTATCATQRLANFL[Aib]HSSNNFGPILPPTNVGSNTP-NH2; disulfide 3-8; N-terminus assumed), for which, in assay [1], the “Ratio (selectivity hAMYR vs hCTR, ratio of EC50 values at the two receptors)” value was 0.8 and the EC50 was determined as 122 pM. Besides, in assay [2], the EC50 was 101 pM.

On to `CC[C@H](C)[C@H](NC(=O)[C@@H]1CCCN1C(=O)CNC(=O)[C@H](Cc1ccccc1)NC(=O)[C@H](CC(N)=O)NC(=O)[C@H](CC(N)=O)NC(=O)[C@H](CO)NC(=O)[C@H](CO)NC(=O)[C@H](Cc1c[nH]cn1)NC(=O)C(C)(C)NC(=O)[C@H](CC(C)C)NC(=O)[C@H](Cc1ccccc1)NC(=O)[C@H](CC(N)=O)NC(=O)[C@H](C)NC(=O)[C@H](CC(C)C)NC(=O)[C@H](CCCNC(=N)N)NC(=O)[C@H](CCC(N)=O)NC(=O)[C@@H](NC(=O)[C@H](C)NC(=O)[C@@H]1CSSC[C@H](NC(=O)[C@H](CCCCN)NC(=O)[C@@H](N)CCCCNC(=O)CC[C@H](NC(=O)CCCCCCCCCCCCCCCCC(=O)O)C(=O)O)C(=O)N[C@@H](CC(N)=O)C(=O)N[C@@H]([C@@H](C)O)C(=O)N[C@@H](C)C(=O)N[C@@H]([C@@H](C)O)C(=O)N1)[C@@H](C)O)C(=O)N[C@@H](CC(C)C)C(=O)N1CCC[C@H]1C(=O)N1CCC[C@H]1C(=O)N[C@H](C(=O)N[C@@H](Cc1c[nH]cn1)C(=O)N[C@H](C(=O)NCC(=O)N[C@@H](CO)C(=O)N[C@@H](CCC(=O)O)C(=O)N[C@H](C(=O)N[C@@H](Cc1ccc(O)cc1)C(N)=O)[C@@H](C)O)C(C)C)[C@@H](C)O` [Peptide 146] (H-K([γGlu-C18 diacid])KCNTATCATQRLANFL[Aib]HSSNNFGPILPPTHVGSETY-NH2; disulfide 3-8; N-terminus assumed), for which, in assay [1], the “Ratio (selectivity hAMYR vs hCTR, ratio of EC50 values at the two receptors)” value was determined as 1.9 and the EC50 was found to be 2530 pM. In addition, the half-maximal effective concentration (EC50) in assay [2] was 4870 pM.

For `CC[C@H](C)[C@H](NC(=O)[C@@H]1CCCN1C(=O)CNC(=O)[C@H](Cc1ccccc1)NC(=O)[C@H](CC(N)=O)NC(=O)[C@H](CC(N)=O)NC(=O)[C@H](CO)NC(=O)[C@H](CO)NC(=O)[C@H](Cc1c[nH]cn1)NC(=O)C(C)(C)NC(=O)[C@H](CC(C)C)NC(=O)[C@H](Cc1ccccc1)NC(=O)[C@H](Cc1c[nH]cn1)NC(=O)[C@H](C)NC(=O)[C@H](CC(C)C)NC(=O)[C@H](CCCNC(=N)N)NC(=O)[C@H](CCC(N)=O)NC(=O)[C@@H](NC(=O)[C@H](C)NC(=O)[C@@H]1CSSC[C@H](NC(=O)[C@@H](N)CCCCNC(=O)CC[C@H](NC(=O)CCCCCCCCCCCCCCCCC(=O)O)C(=O)O)C(=O)N[C@@H](CC(N)=O)C(=O)N[C@@H]([C@@H](C)O)C(=O)N[C@@H](C)C(=O)N[C@@H]([C@@H](C)O)C(=O)N1)[C@@H](C)O)C(=O)N[C@@H](CC(C)C)C(=O)N1CCC[C@H]1C(=O)N1CCC[C@H]1C(=O)N[C@H](C(=O)N[C@@H](CC(N)=O)C(=O)N[C@H](C(=O)NCC(=O)N[C@@H](CO)C(=O)N[C@@H](CC(N)=O)C(=O)N[C@H](C(=O)N[C@@H](Cc1ccc(O)cc1)C(N)=O)[C@@H](C)O)C(C)C)[C@@H](C)O` [Peptide 144] (H-K([γGlu-C18 diacid])CNTATCATQRLAHFL[Aib]HSSNNFGPILPPTNVGSNTY-NH2; disulfide 2-7; N-terminus assumed), the “Ratio (selectivity hAMYR vs hCTR, ratio of EC50 values at the two receptors)” value in assay [1] amounted to 5.3. For the same compound, the values for the EC50 in assay [1] and in assay [2] were 138 pM and 725 pM, respectively.

“H-K([AEEA-AEEA-γGlu-C18 diacid])GGGKCNTATCATQRLANFLVHSSNNFGPILPPTNVGSNTY-NH2 (disulfide 6-11) [Peptide 7]”: in assay [1], the “Ratio (selectivity hAMYR vs hCTR, ratio of EC50 values at the two receptors)” value was determined as 12 and the EC50 amounted to 173 pM. The EC50 in assay [2] was 2160 pM.
